Like-named read-outs stand apart in the source and are kept apart here.

The target in one test is T1, ROCK-II (Homo sapiens, UniProt O75116).
T1 construct: purchased Promega, USA
Nature of the test: ROCK-II inhibition assay (ADP-Glo Kinase Assay, ROCK2 Kinase assay). Format: biochemical. Particulars: for inhibition at 0.01 µg/mL / inhibition at 0.1 µg/mL / inhibition at 1 µg/mL / inhibition at 10 µg/mL: read-out: % of inhibition of ROCK-II ± SD. The procedure: A vehicle control for 5% DMSO was used in the assay to check the interference. Standard curve for ROCK-II enzyme was done (Figure 2). Serial dilution and IC50 of the AE was performed in triplicate.
The assay was repeated as mentioned in Section 2.3 on the AE fractions and the isolates T1-T8.
The assay performance measure was used to validate the screening assay quality through calculation of Z-factor according to methodology of Zhang et al., 1999 [18].
Enzyme inhibition by tested samples is expressed as mean ± SD and analyzed using Prism program version 6 (GraphPad Software, Inc., San Diego CA); comparisons among tested samples were carried out using one-way analysis of variance (ANOVA) followed by Bonferroni's multiple comparisons test. P ‹ 0.05 was considered significant.

A further test deals with testosterone production. Further details: method as in PMID 26978330. Conditions: cited from earlier work.
The next test deals with aromatase enzyme. Further details: method as in PMID 23810842. Conditions: Leydig cells, transformation of testosterone to estrogen; cited from earlier work.
For a further test, the system named is phosphodiesterase. Further details: method as in PMID 23810842. Particulars: high concentration; cited from earlier work.
[1] abbreviates: mean ± SD, triplicates, read-out: IC50 (converted).

T1 sequence (O75116 whole entry): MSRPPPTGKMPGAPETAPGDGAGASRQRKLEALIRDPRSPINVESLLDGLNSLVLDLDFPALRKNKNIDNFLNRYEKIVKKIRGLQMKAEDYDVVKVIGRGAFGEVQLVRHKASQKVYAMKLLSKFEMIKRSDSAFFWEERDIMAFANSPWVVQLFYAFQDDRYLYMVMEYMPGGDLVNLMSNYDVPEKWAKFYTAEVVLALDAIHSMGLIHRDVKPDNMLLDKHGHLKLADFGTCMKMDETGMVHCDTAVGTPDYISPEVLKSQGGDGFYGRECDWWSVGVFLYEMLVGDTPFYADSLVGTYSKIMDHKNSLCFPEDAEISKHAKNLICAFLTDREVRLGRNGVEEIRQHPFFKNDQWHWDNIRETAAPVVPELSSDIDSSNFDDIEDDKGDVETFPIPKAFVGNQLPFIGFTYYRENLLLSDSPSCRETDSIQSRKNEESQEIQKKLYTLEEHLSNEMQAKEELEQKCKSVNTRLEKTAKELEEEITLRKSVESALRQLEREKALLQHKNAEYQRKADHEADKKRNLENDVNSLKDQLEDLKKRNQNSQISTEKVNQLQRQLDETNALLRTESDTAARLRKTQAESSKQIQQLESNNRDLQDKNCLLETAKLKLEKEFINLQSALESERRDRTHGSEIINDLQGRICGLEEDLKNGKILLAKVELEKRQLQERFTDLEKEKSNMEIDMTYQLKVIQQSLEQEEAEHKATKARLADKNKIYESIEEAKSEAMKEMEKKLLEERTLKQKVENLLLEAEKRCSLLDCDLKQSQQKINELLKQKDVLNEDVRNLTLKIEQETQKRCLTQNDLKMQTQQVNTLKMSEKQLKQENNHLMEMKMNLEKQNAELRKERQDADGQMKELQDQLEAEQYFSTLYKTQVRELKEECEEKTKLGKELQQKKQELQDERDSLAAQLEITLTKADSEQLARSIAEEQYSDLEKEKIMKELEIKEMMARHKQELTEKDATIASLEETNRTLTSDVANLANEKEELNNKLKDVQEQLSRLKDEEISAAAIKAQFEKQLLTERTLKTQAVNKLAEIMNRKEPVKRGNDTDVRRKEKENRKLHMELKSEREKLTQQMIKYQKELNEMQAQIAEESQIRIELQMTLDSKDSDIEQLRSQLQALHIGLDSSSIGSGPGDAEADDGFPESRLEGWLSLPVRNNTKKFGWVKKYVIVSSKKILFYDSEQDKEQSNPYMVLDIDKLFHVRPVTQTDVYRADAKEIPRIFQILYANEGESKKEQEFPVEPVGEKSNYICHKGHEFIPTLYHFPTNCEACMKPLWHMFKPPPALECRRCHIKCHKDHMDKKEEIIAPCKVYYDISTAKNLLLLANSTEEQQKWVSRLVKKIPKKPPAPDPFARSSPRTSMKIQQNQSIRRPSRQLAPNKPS

The term IC50 denotes the concentration at which inhibition is half-maximal. What is called inhibition is the relative decrease from the control value, in per cent. For `C=C1C(O)C2(O)OCC34C(CC5C(C)=CC(OC6OC(CO)C(O)C(O)C6O)C(O)C5(C)C23)OC(=O)C(O)C14O` [Compound T8, eurycomanol-2-O-β-D-glycopyranoside], at ROCK-II, the half-inhibitory concentration (IC50) is 2520 nM, the inhibition at 0.01 µg/mL was found to be 4.06 ± 3.8%, the inhibition at 0.1 µg/mL came to 17 ± 0.77% and the inhibition at 1 µg/mL turned out to be 46.5 ± 1.62%. Also, the inhibition at 10 µg/mL on ROCK-II is 71.4 ± 2.54%.
In the case of `COc1cc2ccc(=O)oc2cc1O` [Compound T3, scopoletin], the inhibition at 0.01 µg/mL at ROCK-II (concentration 0.01 µg/ml) stood at 10.1 ± 3.34%. In addition, the inhibition at 0.1 µg/mL on ROCK-II (concentration 0.1 µg/ml) amounted to 25 ± 2.47%. Also, the inhibition at 1 µg/mL at ROCK-II (concentration 1 µg/ml) was 66.15 ± 0.07%. The inhibition at 10 µg/mL on ROCK-II (concentration 10 µg/ml) was determined as 77.1 ± 0.11%. Also, the half-inhibitory concentration (IC50) at ROCK-II (setting [1]) was 2730 nM.
For `CC[C@H](/C=C/[C@@H](C)[C@H]1CC[C@H]2[C@@H]3CC=C4C[C@@H](O)CC[C@]4(C)[C@H]3CC[C@]12C)C(C)C` [Compound T1, stigmasterol], the IC50 at ROCK-II (setting [1]) was 14900 nM. Also, on ROCK-II, the inhibition at 0.01 µg/mL was determined as 2.78 ± 1.84%, the inhibition at 0.1 µg/mL was found to be 13.3 ± 2.26%, the inhibition at 1 µg/mL turned out to be 27.4 ± 2.47% and the inhibition at 10 µg/mL is 60.3 ± 0.14%.
Regarding `CC1=CC(=O)[C@@H](O)[C@@]2(C)[C@H]1CC(=O)[C@@]1(C)[C@H]3C(=O)O[C@H]([C@@H]3C)[C@H](O)[C@@H]12` [Compound T4, eurycomalactone], on ROCK-II, 2280 nM corresponded to half-maximal inhibition (IC50), the inhibition at 0.01 µg/mL turned out to be 6.13 ± 0.44%, the inhibition at 0.1 µg/mL is 25.7 ± 2.47% and the inhibition at 1 µg/mL was 54 ± 0.42%. Also, on ROCK-II, the inhibition at 10 µg/mL came out at 76.2 ± 3.53%.
Take eurycomanone [Compound T6]: the “% of inhibition of ROCK-II ± SD” value on ROCK-II (concentration 0.01 µg/ml) is 5.4 ± 3.74%; on ROCK-II (concentration 0.1 µg/ml), 26.4 ± 2.61∗ %; at ROCK-II (concentration 1 µg/ml), 57.1 ± 0.56∗ %; on ROCK-II (concentration 10 µg/ml) it was 78.3 ± 0.38∗ %. For the same compound, the IC50 against ROCK-II (mean ± SD, triplicates) is reported as 677 ± 51.1∗ ng/ml. Besides, the testosterone production entry in the test on testosterone production is reported as “induce testosterone production”. Further, the aromatase enzyme inhibition result in the test with aromatase enzyme is on record as “aromatase enzyme inhibition”. Also, the effect on phosphodiesterase result with phosphodiesterase is reported as “inhibitory effect”.
Turning to `C[C@@H](N)[C@H]1CC[C@H](C(=O)Nc2ccncc2)CC1.Cl.Cl` (relative stereo) [Compound Y-27632, (+)-(R)-trans-4-(1-aminoethyl)-N-(4-pyridyl)cyclohexanecarboxamide dihydrochloride, reference compound], the “% of inhibition of ROCK-II ± SD” value at ROCK-II (concentration 0.01 µg/ml) is 22.5 ± 1.27∗ %; at ROCK-II (concentration 0.1 µg/ml), 42.15 ± 2.19∗ %; at ROCK-II (concentration 1 µg/ml), 68.15 ± 2.75∗ %; at ROCK-II (concentration 10 µg/ml), 89.9± 0.42∗ %. Further, the “inhibition for ROCK-II activity” value against ROCK-II (concentrations 1-10 μg/ml) was 68.15-89.9%.
With `COc1cc(/C=C/C=O)ccc1O` [Compound T2, trans-coniferyl aldehyde], the inhibition at 0.01 µg/mL on ROCK-II (concentration 0.01 µg/ml) is 10.6 ± 2.94%. Further, the inhibition at 0.1 µg/mL on ROCK-II (concentration 0.1 µg/ml) came to 33.2 ± 1.55%. The inhibition at 1 µg/mL at ROCK-II (concentration 1 µg/ml) was found to be 68.5 ± 0.35%. Moreover, at ROCK-II (concentration 10 µg/ml), the inhibition at 10 µg/mL worked out at 82.1 ± 0.63%. For the same compound, the half-maximal inhibitory concentration (IC50) at ROCK-II (setting [1]) is 2010 nM.

(Values after publication PMC6541974, “Rho-Kinase II Inhibitory Potential of Eurycoma longifolia New Isolate for the Management of Erectile Dysfunction” (Evidence-based Complementary and Alternative Medicine : eCAM, 2019).)
